The structures appear in SMILES notation. Structures can show the parent of a compound that is named as a salt. Where two headings read alike, the source gives them in different places.

Data set [1] has as its system human aortic smooth muscle cells. The data set is described as follows: Smooth muscle cell proliferation assay (radiolabeled thymidine incorporation or CellTiter AQ). The conditions noted are these: human aortic SMC; for IC50: 24 h post treatment in serum-containing growth medium, read-out: Activity: concentration giving 50% inhibition of smooth muscle cell proliferation; for inhibition at 1 µM: 24 h post treatment. In kind it is cell-based. On the procedure: Primary cultures of human aortic smooth muscle cells were obtained from Clonetics. SMC were initially grown in T-75 flasks prior to seeding in 96 well plates. The 96-well plates were seeded with 4000 cells/well. The following day cells were washed with serum free medium and left in serum free media for 24 hours for serum starvation. The next day cells received growth medium containing serum with or without compound. 24 h post treatment cell proliferation was assayed either assessing the incorporation of radiolabeled thymidine to DNA or using a non-radioactive cell proliferation kit from Promega (CellTiter AQ).

Data set [2] deals with MCP-1 (monocyte chemoattractant protein 1). The data set is described as follows: MCP-1 ELISA on supernatants of stimulated human aortic endothelial cells. The conditions noted are these: HAECs treated with TNFα (0.05 ng/ml) or glycated human serum albumin (300 μg/ml) for 18-24 h, read-out: IC50 in MCP-1 enzyme-linked immunosorbent assay. In kind it is cell-based. On the procedure:
(§1) For inflammation assays, human aortic endothelial cells (HAECS) in 96 well plates were washed once with treatment medium (basal medium containing 1% FBS). Cells were treated with an inflammatory agent such as TNFα (0.05 ng/ml) or glycated human serum albumin (US Biologicals) as source of advanced glycation end products (AGEs) (300 μg/ml) for 18-24 h in the presence or absence of specified amount of compound. Cell supernatants were collected and used for the estimation of MCP-1 (monocyte chemoattractant protein 1) or IL-6 (interleukin-6) by ELISA. Cell layers were washed and used for determining the levels of vascular cell adhesion molecule-1 (VCAM-1).
MCP-1 ELISA was carried out using Quantikine Human MCP-1 kit as described by the manufacturer (R&D Systems, Inc.). Mouse anti-human MCP-1 was used as the capture antibody and HRP (horse radish peroxidase)-conjugated goat anti-human MCP-1 antibody was used as detection antibody. Culture medium was incubated with the capture antibody (in 96-well plate) for 2 h at room temperature. Wells were washed three times with wash buffer (0.05% Tween-20 in PBS) followed by incubation with detection antibody for 2 h at room temperature. Color development was read at […] in a microplate reader.

In data set [3] the test system is VCAM-1 (vascular cell adhesion molecule-1). Put plainly: VCAM-1 ELISA on cell layers of stimulated human aortic endothelial cells. In kind it is cell-based. The note with it: HAECs treated with TNFα (0.05 ng/ml) or glycated human serum albumin (300 μg/ml) for 18-24 h, read-out: IC50 in VCAM-1 enzyme-linked immunosorbent assay. On the procedure: as §1
The cells were fixed cells with 100% methanol for 10 min at room temperature. The methanol was removed and the plate was air-dried. 100 ul of 1:1000 diluted primary antibody (polyclonal goat anti-human VCAM-1—R&D Systems #BBA19) was then added and incubated for 2 h at 37 C. The cells were washed with PBS and 100 ul of 1:5000 dilution of secondary antibody (rabbit anti-goat IgG-HRP—Zymed #81-1620) was added and incubated for 1 h at room temperature. Cells were washed and 100 ul of substrate solution (R&D Systems# DY999) was added and incubated for 20 min in the dark at room temp. 50 μl of stop solution (2N sulfuric acid) was added to the wells and absorbency at 450 nm was noted.

Turning to `COc1ccc(Nc2nc(-c3ccccc3)nc3c(C)nn(C)c23)cc1Cl` [E 13, (3-chloro-4-methoxy-phenyl)-(1,3-dimethyl-5-phenyl-1H-pyrazolo[4,3-d]pyrimidin-7-yl)-amine hydrochloride], the IC50 in data set [1] turned out to be 0.38 µM; in data set [2] (Homo sapiens, Endothelial cell) it was 1.5 µM. The corresponding values for `COc1ccc(Nc2nc(-c3ccccc3)nc3c(C)nn(C)c23)cc1F` [E 14, (1,3-dimethyl-5-phenyl-1H-pyrazolo[4,3-d]pyrimidin-7-yl)-(3-fluoro-4-methoxy-phenyl)-amine hydrochloride] are 0.43 µM and 4 µM. For the molecule `COc1ccc(Nc2nc(-c3ccc(F)cc3)nc3c(C)nn(C)c23)cc1F.Cl` [E 16, (3-fluoro-4-methoxy-phenyl)-[5-(4-fluoro-phenyl)-1,3-dimethyl-1H-pyrazolo[4,3-d]pyrimidin-7-yl]-amine hydrochloride], the melting point is 262 °C. The molecule further returned an inhibition at 1 µM in data set [1] of 100%.

Turning to `COc1ccc(Nc2nc(-c3ccc(F)cc3)nc3c(C)nn(C)c23)cc1Cl.Cl` [E 17, (3-chloro-4-methoxy-phenyl)-[5-(4-fluoro-phenyl)-1,3-dimethyl-1H-pyrazolo[4,3-d]pyrimidin-7-yl]-amine hydrochloride], the melting point was over 240 °C. The same molecule gave an inhibition at 1 µM in data set [1] of 100%.

The molecule `Cc1nn(C)c2c(Nc3ccc4c(c3)OCO4)nc(-c3ccc(F)cc3)nc12.Cl` [E 19, benzo[1,3]dioxol-5-yl-[5-(4-fluoro-phenyl)-1,3-dimethyl-1H-pyrazolo[4,3-d]pyrimidin-7-yl]-amine hydrochloride] came in with a melting point of 230 to 232 °C. Further, the IC50 in data set [1] worked out at 0.45 µM. Take `COc1ccc(Nc2nc(-c3cccs3)nc3c(C)nn(C)c23)cc1F.Cl` [E 30, (1,3-dimethyl-5-thiophen-2-yl-1H-pyrazolo[4,3-d]pyrimidin-7-yl)-(3-fluoro-4-methoxy-phenyl)-amine hydrochloride]: the melting point lay within 236 to 238 °C. Also, in data set [1], the IC50 was found to be 1.45 µM. Regarding `COc1ccc(Nc2nc(-c3cccs3)nc3c(C)nn(C)c23)cc1Cl.Cl` [E 32, (3-chloro-4-methoxy-phenyl)-(1,3-dimethyl-5-thiophen-2-yl-1H-pyrazolo[4,3-d]pyrimidin-7-yl)-amine hydrochloride], the melting point was over 240 °C. The IC50 in data set [1] came out at 0.94 µM. For `Cc1nn(C)c2c(Nc3ccc4c(c3)OCO4)nc(-c3cccs3)nc12` [E 33, benzo[1,3]dioxol-5-yl-(1,3-dimethyl-5-thiophen-2-yl-1H-pyrazolo[4,3-d]pyrimidin-7-yl)-amine hydrochloride], the IC50 in data set [1] turned out to be 0.54 µM. As to `CCCc1nn(C)c2c(Nc3ccc(OC(F)(F)F)cc3)nc(-c3ccc(F)cc3)nc12.Cl` [E 37, [5-(4-fluoro-phenyl)-1-methyl-3-propyl-1H-pyrazolo[4,3-d]pyrimidin-7-yl]-(4-trifluoromethoxy-phenyl)-amine hydrochloride], the melting point is 230 to 232 °C. In data set [1], the IC50 came out at 0.5 µM. The corresponding values for `Cc1nn(C)c2c(Nc3ccc(OC(F)(F)F)cc3)nc(-c3ccccc3)nc12.Cl` [E 38, (1,3-dimethyl-5-phenyl-1H-pyrazolo[4,3-d]pyrimidin-7-yl)-(4-trifluoromethoxy-phenyl)-amine hydrochloride] are 174 to 176 °C and 0.23 µM. The molecule `Cc1nn(C)c2c(Nc3ccc(C(F)(F)F)cc3)nc(-c3ccc(F)cc3)nc12.Cl` [E 39, [5-(4-fluoro-phenyl)-1,3-dimethyl-1H-pyrazolo[4,3-d]pyrimidin-7-yl]-(4-trifluoromethyl-phenyl)-amine hydrochloride] displayed a melting point of 250 to 252 °C. Further, in data set [1], the IC50 was 0.33 µM. The corresponding values for `Cc1nn(C)c2c(Nc3ccc(S(=O)(=O)N(C)C)cc3)nc(-c3ccc(F)cc3)nc12.Cl` [E 43, 4-[5-(4-fluoro-phenyl)-1,3-dimethyl-1H-pyrazolo[4,3-d]pyrimidin-7-ylamino]-N,N-dimethyl-benzenesulfonamide hydrochloride] are 254 to 256 °C and 0.93 µM.

In the case of `Cc1nn(C)c2c(Nc3ccc(S(N)(=O)=O)cc3)nc(-c3ccccc3)nc12` [E 44, 4-(1,3-dimethyl-5-phenyl-1H-pyrazolo[4,3-d]pyrimidin-7-ylamino)-benzenesulfonamide hydrochloride], the IC50 in data set [1] came out at 2.5 µM. Turning to `Cc1nn(C)c2c(Nc3cccc(C(N)=O)c3)nc(-c3ccc(F)cc3)nc12.Cl` [E 49, 3-[5-(4-fluoro-phenyl)-1,3-dimethyl-1H-pyrazolo[4,3-d]pyrimidin-7-ylamino]-benzamide hydrochloride], the melting point lay in the range of 258 to 260 °C. Moreover, the IC50 in data set [2] (Homo sapiens, Endothelial cell) came to 0.34 µM. For the same molecule, the IC50 in data set [3] (Homo sapiens, Endothelial cell) was 0.61 µM.

Regarding `CNC(=O)c1cccc(Nc2nc(-c3ccc(F)cc3)nc3c(C)nn(C)c23)c1.Cl` [E 50, 3-[5-(4-fluoro-phenyl)-1,3-dimethyl-1H-pyrazolo[4,3-d]pyrimidin-7-ylamino]-N-methyl-benzamide hydrochloride], the melting point lay in the range of 272 to 274 °C. Moreover, in data set [2] (Homo sapiens, Endothelial cell), the IC50 stood at 0.42 µM. The IC50 in data set [3] (Homo sapiens, Endothelial cell) worked out at 1.68 µM.

For the molecule `CCCc1nn(C)c2c(Nc3ccc4c(c3)OCO4)nc(-c3cccs3)nc12` [E 52, benzo[1,3]dioxol-5-yl-(1-methyl-3-propyl-5-thiophen-2-yl-1H-pyrazolo[4,3-d]pyrimidin-7-yl)-amine hydrochloride], the IC50 in data set [1] was 0.5 µM; in data set [2] (Homo sapiens, Endothelial cell), 8.7 µM; in data set [3] (Homo sapiens, Endothelial cell) it was 10.9 µM. The corresponding values for `COc1ccc(Nc2nc(-c3ccc(F)cc3)cc3c2c(C)nn3C)cc1Cl` [E 72, (3-chloro-4-methoxy-phenyl)-[6-(4-fluoro-phenyl)-1,3-dimethyl-1H-pyrazolo[4,3-c]pyridin-4-yl]-amine hydrochloride] are 1.3 µM, 3.8 µM and 14 µM. `CCCc1nn(C)c2c(Nc3ccc(OC)c(F)c3)nc(-c3ccc(F)cc3)nc12` [E 86, (3-fluoro-4-methoxy-phenyl)-[5-(4-fluoro-phenyl)-1-methyl-3-propyl-1H-pyrazolo[4,3-d]pyrimidin-7-yl]-amine]: the results for the IC50 in data set [2] and in data set [3] were 9 µM and 12.7 µM, respectively. On to `Cc1nn(C)c2c(Nc3ccc(S(C)(=O)=O)cc3)nc(-c3ccc(F)cc3)nc12` [E 96, [5-(4-fluoro-phenyl)-1,3-dimethyl-1H-pyrazolo[4,3-d]pyrimidin-7-yl]-(4-methanesulfonyl-phenyl)-amine], for which the melting point fell in the range of 216 to 218 °C. In data set [1], the IC50 turned out to be 1.37 µM.

`Cc1nn(C)c2cc(-c3ccc(F)cc3)nc(-c3ccc(S(C)(=O)=O)cc3)c12` [E 98, 6-(4-fluoro-phenyl)-4-(4-methanesulfonyl-phenyl)-1,3-dimethyl-1H-pyrazolo[4,3-c]pyridine] gave a melting point of 228 to 230 °C. The same measure, in the same setting: under `Cc1nn(C)c2c(F)nc(-c3ccccc3)nc12` [E 99, 7-fluoro-1,3-dimethyl-5-phenyl-1H-pyrazolo[4,3-d]pyrimidine] stands 110 to 112 °C. As for `Cc1nn(C)c2cc(-c3ccc(F)cc3)nc(Nc3ccc(S(C)(=O)=O)cc3)c12` [E 100, [6-(4-fluoro-phenyl)-1,3-dimethyl-1H-pyrazolo[4,3-c]pyridin-4-yl]-(4-methanesulfonyl-phenyl)-amine], the IC50 in data set [2] (Homo sapiens, Endothelial cell) is 0.48 µM.

`Cc1nn(C)c2c(-c3ccc(OC(F)(F)F)cc3)nc(-c3ccc(F)cc3)nc12` [E 101, 5-(4-fluoro-phenyl)-1,3-dimethyl-7-(4-trifluoromethoxy-phenyl)-1H-pyrazolo[4,3-d]pyrimidine] gave a melting point of 170 to 172 °C. For the molecule `Cc1nn(C)c2c(N(C)C)nc(-c3ccccc3)nc12` [E 102, (1,3-dimethyl-5-phenyl-1H-pyrazolo[4,3-d]pyrimidin-7-yl)-dimethyl-amine], the melting point is 86 to 88 °C.

The record behind these values is US20060128729A1, “Novel bicyclic heterocyclic compounds, process for their preparation and compositions containing them” (priority 2004, published 2006).
